From paper PMC8205030, “Methoxy and bromo scans on N-(5-methoxyphenyl) methoxybenzenesulphonamides reveal potent cytotoxic compounds, especially against the human breast adenocarcinoma MCF7 cell line” (Journal of Enzyme Inhibition and Medicinal Chemistry, 2021)
Converted amounts (≈) assume the structure as drawn. Read-outs that look alike come from different tables or passages of the source.

How the values were obtained:
[1] = test system: HeLa (human cervical carcinoma) cells; test: Cell growth assay (XTT), HeLa; type: cell-based; conditions: 72 h drug exposure, read-out: Antiproliferative activity IC50 HeLa
Experimental: (§1) The presence of mycoplasma was routinely checked with MycoAlert kit (Lonza-Cambrex) and only mycoplasma-free cells were used in the experiments. Tumour cell lines were kindly provided by Dr Faustino Mollinedo from Centro de Investigaciones Biológicas Margarita Salas, Madrid, Spain. To determine cell growth, cells in exponential growth phase were seeded (100 µL/well in 96-well plates) with appropriate cell concentration (1.5 × 10^4 cells/mL for MCF7, HeLa and HEK-293 and 3 × 10^4 cells/mL for HT-29) in complete DMEM or RPMI 1640 medium (see above) at 37 °C and 5% CO2 atmosphere. After 24 h incubation, to allow cells to attach to the plates, all compounds were added at 1 µM concentration (10 µL/well in 96-well plates) and the effect on the proliferation was evaluated 72 h post-treatment. Compounds showing antiproliferative effects at tested concentration were selected for IC50 calculation (50% inhibitory concentration compared to the untreated controls) from 10^−5 to 10^−10 M concentration. Nonlinear curves fitting the experimental data were carried out for each compound. […] A freshly prepared mixture solution of XTT labelling reagent with 0.02% (v/v) PMS (N-methyl-dibenzopyrazine methyl sulfate) electron coupling reagent was added to cells (50 µL/well in 96-well plates, the total volume of 160 µL/well) and were incubated during the corresponding time according to each cell line (4 h for MCF7 and HeLa and 6 h for HT-29 and HEK-293) in a humidified atmosphere (37 °C, 5% CO2). The absorbance of the formazan product generated was measured at a test wavelength of 450 nm using a multi-well plate reader (Ultra Evolution, Tecan, Männedorf, Suiza). Compounds were dissolved in DMSO and the final solvent concentrations never exceeded 0.5% (v/v). The control wells included treated cells with 0.5% (v/v) DMSO and the positive control. 10 µM verapamil was included as a control for the HT-29 cell line. Measurements were performed in triplicate, and each experiment was repeated three times.

[2] = test system: MCF7 (human breast carcinoma) cells; test: Cell growth assay (XTT), MCF7; type: cell-based; conditions: Homo sapiens, MCF7; 72 h drug exposure, XTT; read-out: Antiproliferative activity IC50 MCF7
Experimental: as §1

[3] = test system: HT-29 (human colon carcinoma) cells; test: Cell growth assay (XTT), HT-29, alone or with verapamil; type: cell-based
Experimental: as §1, with “Compounds showing antiproliferative effects at tested concentration were selected for IC50 calculation (50% inhibitory concentration compared to the untreated controls) from 10^−5 to 10^−10 M concentration.” left out

[4] = target: T1, microtubular protein isolated from calf brain (Bos taurus, UniProt P81947+Q6B856); test: Inhibition of tubulin polymerisation (turbidity); type: biochemical; conditions: for TPI % 10 µM: 10 µM compound, 1.5 mg/mL microtubular protein; for IC50: in vitro tubulin polymerisation inhibition, read-out: TPI IC50
T1 construct: isolated from calf brain according to the modified Shelanski method; from tissue; host or cells: calf brain
Experimental: Microtubular protein was isolated from calf brain according to the modified Shelanski method[23]^,[24] by two cycles of temperature-dependent assembly/disassembly and stored at −80 °C. Before each use, protein concentration is determined by Bradford method[25] taking BSA as standard. Tubulin polymerisation was monitored using a Helios α spectrophotometer by measuring the increase in turbidity at 450 nm, caused by a shift from 4 °C to 37 °C, which allows the in vitro microtubular protein to depolymerise and to polymerise, respectively. The assay was carried out in quartz cuvettes containing 1.5 mg/mL microtubular protein and the ligand (except for control cuvette with only DMSO at the same concentration) in a mixture of 0.1 M MES buffer, 1 mM EGTA, 1 mM MgCl2, 1 mM β-ME, and 1.5 mM GTP at pH 6.7 (final volume 500 µL). Cuvettes were preincubated at 20 °C for 30 min, to allow ligand binding to tubulin, and subsequently cooled on ice for 10 min. Then, the experiment starts at 4 °C to establish the initial baseline. The assembly process was initiated by a temperature shift to 37 °C and the turbidity produced by tubulin polymerisation can be measured by an absorbance increase. After reaching a stable plateau, the temperature was switched back to 4 °C to return to the initial absorption values (to confirm the reversible nature of the monitored process and to determine whether or not the microtubular protein has stabilized). The difference in amplitude between the stable plateau and the initial baseline of the curves was taken as the degree of tubulin polymerisation for each experiment. […] All compounds were tested at 10 µM concentration. IC50 values were calculated for compounds that inhibit tubulin polymerisation more than 50% at 10 µM. […] All the measurements were carried out in at least two independent experiments using microtubular protein from different preparations.

[5] = Aqueous solubility (saturation shake-flask, UV); type: physicochemical; conditions: pH 7.0 phosphate buffer, room temperature; for solubility at 48 h: aqueous buffer, thermodynamic from solid
Experimental: The aqueous solubility was determined in a Helios-α UV-320 Spectrophotometer Thermo-Spectronic, Thermo Fischer Scientific, Waltham, MA, USA) using an approach based on the saturation shake-flask method. 1–2 mg of each selected compound was suspended in 300 µL pH 7.0 buffer and stirred for 48 h at room temperature. The resulting mixture was filtered through a […] filter to discard the insoluble residues. A scan between 270 and 400 nm for the tested compound was performed and three wavelengths of maximum absorbance were selected. Calibration curves were performed at these wavelengths and the concentration in the supernatant was measured by UV absorbance. The final value was given as the average of the three measurements.

[6] = 72 h, in the presence of Pgp/MDR1 inhibitor verapamil (10 µM), read-out: Antiproliferative activity IC50 HT-29 Verap
[7] = Homo sapiens, HT-29, 72 h drug exposure, XTT, read-out: Antiproliferative activity IC50 HT-29

T1 sequence (Q6B856 whole entry): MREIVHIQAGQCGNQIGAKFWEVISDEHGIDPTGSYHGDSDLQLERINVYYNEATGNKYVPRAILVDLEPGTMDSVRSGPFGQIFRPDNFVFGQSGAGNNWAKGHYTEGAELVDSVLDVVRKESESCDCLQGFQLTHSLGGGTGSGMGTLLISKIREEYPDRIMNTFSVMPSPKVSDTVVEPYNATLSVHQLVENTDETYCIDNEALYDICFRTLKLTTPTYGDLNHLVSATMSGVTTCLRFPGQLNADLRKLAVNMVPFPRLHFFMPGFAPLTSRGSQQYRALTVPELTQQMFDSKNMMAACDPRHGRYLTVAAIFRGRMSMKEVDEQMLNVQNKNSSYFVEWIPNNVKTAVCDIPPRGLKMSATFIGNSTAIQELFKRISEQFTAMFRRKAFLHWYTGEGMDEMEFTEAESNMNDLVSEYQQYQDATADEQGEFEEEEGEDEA
T1 sequence (P81947 whole entry): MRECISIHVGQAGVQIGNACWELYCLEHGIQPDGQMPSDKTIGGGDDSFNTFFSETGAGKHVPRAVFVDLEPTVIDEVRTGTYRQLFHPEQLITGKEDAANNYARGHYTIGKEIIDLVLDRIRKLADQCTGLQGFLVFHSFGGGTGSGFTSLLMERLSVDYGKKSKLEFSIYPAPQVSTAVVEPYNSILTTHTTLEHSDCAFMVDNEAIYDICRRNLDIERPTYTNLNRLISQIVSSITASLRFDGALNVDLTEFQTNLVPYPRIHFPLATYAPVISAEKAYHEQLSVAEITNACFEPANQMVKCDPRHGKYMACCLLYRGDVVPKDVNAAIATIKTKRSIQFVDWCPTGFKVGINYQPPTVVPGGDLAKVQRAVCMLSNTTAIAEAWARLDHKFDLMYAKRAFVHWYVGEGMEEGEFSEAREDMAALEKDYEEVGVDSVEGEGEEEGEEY

Structure (SMILES)	IC50 [1] [µM]	IC50 [2] [µM]	IC50 [3, 6] [µM]	IC50 [3, 7] [µM]	TPI % 10 µM [4] [%]	IC50 [4] [µM]	solubility at 48 h [5] [µg/mL]	melting point [°C]	Difference of IC50 values HeLa vs HT-29 [3] [fold]	Aqueous solubility ([5]; 48 h) [µg/mL]
COc1ccc(/C=C\c2cc(OC)c(OC)c(OC)c2)cc1O [Combretastatin A-4, combretastatin A-4, reference compound]	0.002	0.001	0.327	0.305	100				> 100	1
COc1ccc(S(=O)(=O)N(C)c2ccc(OC)c(OC)c2)cc1 [Compound 12, N-(3,4-dimethoxyphenyl)-4-methoxy-N-methylbenzenesulphonamide]	> 1	> 1		> 1	0	> 10	70 (≈ 207 µM)			
CCOC(=O)CN(c1cc(OC)c(OC)cc1Br)S(=O)(=O)c1ccc(OC)cc1 [Compound 17, Ethyl N-(2-bromo-4,5-dimethoxyphenyl)-N-((4-methoxyphenyl)sulphonyl)glycinate]	> 1	> 1		> 1	0	> 10		116 to 126		
COc1ccc(S(=O)(=O)N(Cc2ccccc2)c2cc(OC)c(OC)cc2Br)cc1 [Compound 18, N-benzyl-N-(2-bromo-4,5-dimethoxyphenyl)-4-methoxybenzenesulphonamide]	> 1	> 1		> 1	38	> 10		114 to 120		
COc1ccc(S(=O)(=O)N(CC(=O)O)c2cc(OC)c(Br)cc2OC)cc1 [Compound 29, N-(4-bromo-2,5-dimethoxyphenyl)-N-((4-methoxyphenyl)sulphonyl)glycine]	> 1	> 1		> 1	8	> 10		180 to 184		
CCOC(=O)CN(c1cc(OC)c(OC)cc1OC)S(=O)(=O)c1ccc(OC)cc1 [Compound 36, Ethyl N-((4-methoxyphenyl)sulphonyl)-N-(2,4,5-trimethoxyphenyl)glycinate]	> 1	> 1		> 1	0	> 10		127 to 132		

More lines, main results first:

IC50 [1] [µM]	IC50 [2] [µM]	IC50 [3, 6] [µM]	IC50 [3, 7] [µM]	TPI % 10 µM [4] [%]	IC50 [4] [µM]	solubility at 48 h [5] [µg/mL]	melting point [°C]	Structure (SMILES)	Difference of IC50 values HeLa vs HT-29 [3] [fold]	Aqueous solubility ([5]; 48 h) [µg/mL]
0.877	0.765		> 1	10	> 10	35 (≈ 104 µM)	120 to 128	COc1ccc(S(=O)(=O)N(C)c2cc(OC)cc(OC)c2)cc1 [Compound 2, N-(3,5-dimethoxyphenyl)-4-methoxy-N-methylbenzenesulphonamide]		
> 1	> 1		> 1	0	> 10		156 to 160	COc1ccc(S(=O)(=O)N(C)c2cc(OC)cc(OC)c2Br)cc1 [Compound 8b, N-(2-bromo-3,5-dimethoxyphenyl)-4-methoxy-N-methylbenzenesulphonamide]		
> 1	> 1		> 1	0	> 10		141 to 144	CCN(c1cc(OC)cc(OC)c1Br)S(=O)(=O)c1ccc(OC)cc1 [Compound 9b, N-(2-bromo-3,5-dimethoxyphenyl)-N-ethyl-4-methoxybenzenesulphonamide]		
> 1	> 1		> 1	4	> 10	82 (≈ 254 µM)	101 to 102	COc1ccc(S(=O)(=O)Nc2ccc(OC)c(OC)c2)cc1 [Compound 11, N-(3,4-dimethoxyphenyl)-4-methoxybenzenesulphonamide]		
0.51			0.543	0	> 10	22 (≈ 54.7 µM)	162 to 167	COc1ccc(S(=O)(=O)Nc2cc(OC)c(OC)cc2Br)cc1 [Compound 13, N-(2-bromo-4,5-dimethoxyphenyl)-4-methoxybenzenesulphonamide]		
0.557			0.907	0	> 10	61 (≈ 147 µM)	136 to 141	COc1ccc(S(=O)(=O)N(C)c2cc(OC)c(OC)cc2Br)cc1 [Compound 14, N-(2-bromo-4,5-dimethoxyphenyl)-4-methoxy-N-methylbenzenesulphonamide]		
0.313	0.66	0.5	0.365	24	> 10	26 (≈ 60.4 µM)	111 to 117	CCN(c1cc(OC)c(OC)cc1Br)S(=O)(=O)c1ccc(OC)cc1 [Compound 15, N-(2-bromo-4,5-dimethoxyphenyl)-N-ethyl-4-methoxybenzenesulphonamide]		
0.313	0.715	1.07	0.5	19	> 10	122 (≈ 320 µM)		CCN(c1cc(OC)c(OC)cc1OC)S(=O)(=O)c1ccc(OC)cc1 [Compound 34, N-ethyl-4-methoxy-N-(2,4,5-trimethoxyphenyl)benzenesulphonamide]		
